This is an account of results in patent US9980486B2, “Herbicidal quinolines” (Syngenta Participations AG, priority 2014, dated 2018).

Common to all, as to assay: Experiment B1 glasshouse herbicide test, pre- and post-emergence, percentage damage
Holding throughout (format): in vivo
Conditions in all cases: evaluated after 13 days

The test system of one assay is Lolium perenne (LOLPE). As to the method: (§1) Seeds of a variety of test species are sown in standard soil in pots (Lolium perenne (LOLPE), Solanum nigrum (SOLNI), Amaranthus retoflexus (AMARE), Setaria faberi (SETFA), Echinochloa crus-galli (ECHCG), Ipomoea hederacea (IPOHE)). After cultivation for one day (pre-emergence) or after 8 days cultivation (post-emergence) under controlled conditions in a glasshouse (at 24/16° C., day/night; 14 hours light; 65% humidity), the plants are sprayed with an aqueous spray solution derived from the formulation of the technical active ingredient in acetone/water (50:50) solution containing 0.5% Tween 20 (polyoxyethelyene sorbitan monolaurate, CAS RN 9005-64-5). […] The test plants are then grown in a glasshouse under controlled conditions in a glasshouse (at 24/16° C., day/night; 14 hours light; 65% humidity) and watered twice daily. After 13 days for pre and post-emergence, the test is evaluated for the percentage damage caused to the plant. The biological activities are shown in the following table on a five point scale (5=80-100%; 4=60-79%; 3=40-59%; 2=20-39%; 1=0-19%).

Assay [1] concerns Echinochloa crus-galli (ECHCG). How it is done: as §1
Another assay deals with Setaria faberi (SETFA). As to the method: as §1
For the next assay, the system named is Solanum nigrum (SOLNI). How it is done:
as §1

Assay [2] relates to Ipomoea hederacea (IPOHE). How it is done: as §1
Assay [3] concerns Amaranthus retoflexus (AMARE). As to the method: as §1
Where [4] appears, read: POST Application (post-emergence, after 8 days cultivation), 1000 g/h.
Where [5] appears, read: PRE Application (pre-emergence, after cultivation for one day), 1000 g/h.
The mark [6] stands for this setting: POST Application (post-emergence), applied at 250 g/ha.
[7] abbreviates: PRE Application (pre-emergence), applied at 250 g/ha.

For the molecule `CCn1nnnc1NC(=O)c1cc2cccnc2c(-c2ccccc2)c1C(F)(F)F` [Compound 1.002], the “percentage damage caused to the plant, five point scale, LOLPE” value (“percentage damage caused … LOLPE” for short) in the assay with Lolium perenne (LOLPE) (setting [4]) and with Lolium perenne (LOLPE) (setting [5]) was 5 (5=80-100%) throughout. Further, the “percentage damage caused to the plant, five point scale, ECHCG” value (from here on “percentage damage caused … ECHCG”) in assay [1] (setting [4]) and in assay [1] (setting [5]) was 5 (5=80-100%) each time. The “percentage damage caused to the plant, five point scale, SETFA” value (from here on “percentage damage caused … SETFA”) in the assay with Setaria faberi (SETFA) (setting [4]) and in the assay on Setaria faberi (SETFA) (setting [5]) was 5 (5=80-100%) throughout. The “percentage damage caused to the plant, five point scale, SOLNI” value (from here on “percentage damage caused … SOLNI”) in the assay on Solanum nigrum (SOLNI) (setting [4]) and with Solanum nigrum (SOLNI) (setting [5]) was 5 (5=80-100%) in each case. The “percentage damage caused to the plant, five point scale, IPOHE” value (from here on “percentage damage caused … IPOHE”) in assay [2] (setting [4]) and in assay [2] (setting [5]) was 5 (5=80-100%) each time. Also, the “percentage damage caused to the plant, five point scale, AMARE” value (from here on “percentage damage caused … AMARE”) in assay [3] (setting [4]) and in assay [3] (setting [5]) was 5 (5=80-100%) each time.
For `CCCn1nnnc1NC(=O)c1cc2cccnc2c(-c2ccccc2)c1C(F)(F)F` [Compound 1.003], the “percentage damage caused … LOLPE” value in the assay on Lolium perenne (LOLPE) (setting [4]) and in the assay on Lolium perenne (LOLPE) (setting [5]) was 1 (1=0-19%) each time. In addition, the “percentage damage caused … ECHCG” value in assay [1] (setting [4]) was 3 (3=40-59%); in assay [1] (setting [5]), 5 (5=80-100%). Besides, the “percentage damage caused … SETFA” value in the assay on Setaria faberi (SETFA) (setting [4]) is 2 (2=20-39%); in the assay with Setaria faberi (SETFA) (setting [5]), 1 (1=0-19%). Besides, the “percentage damage caused … SOLNI” value in the assay on Solanum nigrum (SOLNI) (setting [4]) and with Solanum nigrum (SOLNI) (setting [5]) was 5 (5=80-100%) throughout. In addition, the “percentage damage caused … IPOHE” value was 4 (4=60-79%) in assay [2] (setting [4]) and 2 (2=20-39%) in assay [2] (setting [5]). The “percentage damage caused … AMARE” value in assay [3] (setting [4]) and in assay [3] (setting [5]) was 5 (5=80-100%) each time.
`Cn1nnnc1NC(=O)c1cc2cc(F)cnc2c(-c2ccccc2)c1C(F)(F)F` [Compound 1.007, 3-fluoro-N-(1-methyltetrazol-5-yl)-8-phenyl-7-(trifluoromethyl)quinoline-6-carboxamide]: the “percentage damage caused … LOLPE” value in the assay with Lolium perenne (LOLPE) (setting [4]) and in the assay on Lolium perenne (LOLPE) (setting [5]) was 5 (5=80-100%) in each case. Moreover, the “percentage damage caused … ECHCG” value in assay [1] (setting [4]) and in assay [1] (setting [5]) was 5 (5=80-100%) each time. The “percentage damage caused … SETFA” value in the assay with Setaria faberi (SETFA) (setting [4]) and in the assay with Setaria faberi (SETFA) (setting [5]) was 5 (5=80-100%) in each case. Also, the “percentage damage caused … SOLNI” value with Solanum nigrum (SOLNI) (setting [4]) and in the assay with Solanum nigrum (SOLNI) (setting [5]) was 5 (5=80-100%) in each case. Moreover, the “percentage damage caused … IPOHE” value in assay [2] (setting [4]) and in assay [2] (setting [5]) was 5 (5=80-100%) in each case. In addition, the “percentage damage caused … AMARE” value in assay [3] (setting [4]) and in assay [3] (setting [5]) was 5 (5=80-100%) in each case.
Regarding `COc1c(C(=O)Nc2nnnn2C)cc2cccnc2c1-c1ccccc1` [Compound 1.009, 7-methoxy-N-(1-methyltetrazol-5-yl)-8-phenyl-quinoline-6-carboxamide], the “percentage damage caused … LOLPE” value is listed as 4 (4=60-79%) with Lolium perenne (LOLPE) (setting [4]) and 5 (5=80-100%) in the assay on Lolium perenne (LOLPE) (setting [5]). Besides, the “percentage damage caused … ECHCG” value in assay [1] (setting [4]) and in assay [1] (setting [5]) was 5 (5=80-100%) in each case. Moreover, the “percentage damage caused … SETFA” value in the assay with Setaria faberi (SETFA) (setting [4]) and in the assay on Setaria faberi (SETFA) (setting [5]) was 5 (5=80-100%) each time. In addition, the “percentage damage caused … SOLNI” value in the assay with Solanum nigrum (SOLNI) (setting [4]) and in the assay on Solanum nigrum (SOLNI) (setting [5]) was 5 (5=80-100%) throughout. Further, the “percentage damage caused … IPOHE” value in assay [2] (setting [4]) and in assay [2] (setting [5]) was 5 (5=80-100%) in each case. Further, the “percentage damage caused … AMARE” value in assay [3] (setting [4]) and in assay [3] (setting [5]) was 5 (5=80-100%) each time.
Consider `Cn1nnnc1NC(=O)c1cc2cccnc2c(-c2ccccc2)c1S(C)(=O)=O` [Compound 1.010, 7-METHYLSULFONYL-N-(1-METHYLTETRAZOL-5-YL)-8-PHENYL-QUINOLINE-6-CARBOXAMIDE], for which the entries for the “percentage damage caused … LOLPE” value in the assay with Lolium perenne (LOLPE) (setting [6]) and in the assay on Lolium perenne (LOLPE) (setting [7]) were 4 (4=60-79%) and 2 (2=20-39%), respectively. Also, the “percentage damage caused … ECHCG” value in assay [1] (setting [6]) and in assay [1] (setting [7]) was 5 (5=80-100%) each time. Also, the “percentage damage caused … SETFA” value in the assay on Setaria faberi (SETFA) (setting [6]) is 5 (5=80-100%); in the assay on Setaria faberi (SETFA) (setting [7]), 2 (2=20-39%). Moreover, the “percentage damage caused … SOLNI” value in the assay on Solanum nigrum (SOLNI) (setting [6]) and in the assay on Solanum nigrum (SOLNI) (setting [7]) was 5 (5=80-100%) throughout. For the same molecule, the results for the “percentage damage caused … IPOHE” value in assay [2] (setting [6]) and in assay [2] (setting [7]) were 5 (5=80-100%) and 4 (4=60-79%), respectively. For the same molecule, the “percentage damage caused … AMARE” value in assay [3] (setting [6]) and in assay [3] (setting [7]) was 5 (5=80-100%) in each case.
Consider `Cn1nnnc1NC(=O)c1cc2cccnc2c(-c2ccccc2)c1Cl` [Compound 1.011, 7-chloro-N-(1-methyltetrazol-5-yl)-8-phenyl-quinoline-6-carboxamide], for which the “percentage damage caused … LOLPE” value in the assay on Lolium perenne (LOLPE) (setting [4]) and with Lolium perenne (LOLPE) (setting [5]) was 5 (5=80-100%) each time. The “percentage damage caused … ECHCG” value in assay [1] (setting [4]) and in assay [1] (setting [5]) was 5 (5=80-100%) each time. Besides, the “percentage damage caused … SETFA” value in the assay with Setaria faberi (SETFA) (setting [4]) and in the assay with Setaria faberi (SETFA) (setting [5]) was 5 (5=80-100%) each time. For the same molecule, the “percentage damage caused … SOLNI” value in the assay with Solanum nigrum (SOLNI) (setting [4]) and in the assay with Solanum nigrum (SOLNI) (setting [5]) was 5 (5=80-100%) in each case. Besides, the “percentage damage caused … IPOHE” value in assay [2] (setting [4]) and in assay [2] (setting [5]) was 5 (5=80-100%) each time. The “percentage damage caused … AMARE” value in assay [3] (setting [4]) and in assay [3] (setting [5]) was 5 (5=80-100%) each time.
As for `Cc1ccc(-c2c(C(F)(F)F)c(C(=O)Nc3nnnn3C)cc3cccnc23)cc1` [Compound 1.017], the “percentage damage caused … LOLPE” value with Lolium perenne (LOLPE) (setting [4]) and with Lolium perenne (LOLPE) (setting [5]) was 4 (4=60-79%) throughout. Also, the “percentage damage caused … ECHCG” value in assay [1] (setting [4]) and in assay [1] (setting [5]) was 5 (5=80-100%) each time. Also, the “percentage damage caused … SETFA” value in the assay on Setaria faberi (SETFA) (setting [4]) and in the assay with Setaria faberi (SETFA) (setting [5]) was 5 (5=80-100%) each time. For the same molecule, the “percentage damage caused … SOLNI” value in the assay with Solanum nigrum (SOLNI) (setting [4]) and in the assay with Solanum nigrum (SOLNI) (setting [5]) was 5 (5=80-100%) in each case. Moreover, the “percentage damage caused … IPOHE” value in assay [2] (setting [4]) and in assay [2] (setting [5]) was 5 (5=80-100%) throughout. Also, the “percentage damage caused … AMARE” value in assay [3] (setting [4]) and in assay [3] (setting [5]) was 5 (5=80-100%) throughout.
`CSc1ccc(-c2c(C)c(C(=O)Nc3nnnn3C)cc3cccnc23)cc1` [Compound 1.030, 7-methyl-8-(4-methylsulfanylphenyl)-N-(1-methyltetrazol-5-yl)quinoline-6-carboxamide]: the “percentage damage caused … LOLPE” value with Lolium perenne (LOLPE) (setting [4]) and in the assay on Lolium perenne (LOLPE) (setting [5]) was 4 (4=60-79%) each time. The “percentage damage caused … ECHCG” value in assay [1] (setting [4]) and in assay [1] (setting [5]) was 5 (5=80-100%) throughout. Also, the “percentage damage caused … SETFA” value in the assay with Setaria faberi (SETFA) (setting [4]) and in the assay on Setaria faberi (SETFA) (setting [5]) was 5 (5=80-100%) in each case. Further, the “percentage damage caused … SOLNI” value in the assay with Solanum nigrum (SOLNI) (setting [4]) and with Solanum nigrum (SOLNI) (setting [5]) was 5 (5=80-100%) in each case. Further, the “percentage damage caused … IPOHE” value in assay [2] (setting [4]) is 5 (5=80-100%); in assay [2] (setting [5]), 4 (4=60-79%). Besides, the “percentage damage caused … AMARE” value in assay [3] (setting [4]) and in assay [3] (setting [5]) was 5 (5=80-100%) each time.
